For data set [1], the target named is T1, Sodium-dependent phosphate transport protein 2B (Homo sapiens, UniProt O95436).
T1 sequence (O95436 whole entry): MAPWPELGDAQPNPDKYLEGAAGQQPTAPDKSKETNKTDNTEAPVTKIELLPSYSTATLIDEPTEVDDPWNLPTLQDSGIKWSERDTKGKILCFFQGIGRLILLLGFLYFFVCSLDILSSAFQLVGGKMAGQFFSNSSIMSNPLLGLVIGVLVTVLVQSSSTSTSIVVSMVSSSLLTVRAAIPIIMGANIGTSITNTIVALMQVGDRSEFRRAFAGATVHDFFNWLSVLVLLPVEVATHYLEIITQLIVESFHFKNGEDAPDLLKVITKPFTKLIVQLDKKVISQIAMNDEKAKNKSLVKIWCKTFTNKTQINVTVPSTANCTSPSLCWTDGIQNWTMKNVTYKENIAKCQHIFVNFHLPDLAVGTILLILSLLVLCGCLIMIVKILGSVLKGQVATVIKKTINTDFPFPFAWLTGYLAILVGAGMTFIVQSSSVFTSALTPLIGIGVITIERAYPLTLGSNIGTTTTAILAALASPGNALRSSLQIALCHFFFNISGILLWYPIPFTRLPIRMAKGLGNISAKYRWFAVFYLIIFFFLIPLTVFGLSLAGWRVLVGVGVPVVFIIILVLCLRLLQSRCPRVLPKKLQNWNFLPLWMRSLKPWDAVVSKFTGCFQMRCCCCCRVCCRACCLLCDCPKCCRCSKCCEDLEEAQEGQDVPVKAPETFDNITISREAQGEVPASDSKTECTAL
Put plainly: Inhibition of human NaPi2b stably expressed in CHO-K1 cells assessed as reduction in H2[33P]O4 uptake incubated for 30 mins by liquid scintillation counting method. Format: cell-based.

A short description of data set [2]: Drug excretion in Sprague-Dawley rat feces at 10 mg/kg, po measured for 24 hrs by liquid chromatography-tandem mass spectrometry relative to control. The settings on record: faeces, read-out: Drug excretion. The data set is classed as ADME, organism-based.
Data set [3] can be described thus: Oral bioavailability in Sprague-Dawley rat at 10 mg/kg measured for 24 hrs by liquid chromatography-tandem mass spectrometry relative to control. Format: ADME, organism-based. The settings on record: in vivo.
Data set [4] can be described thus: Solubility in FeSSIF at pH 4.9 incubated for 25 degC for 2 hrs further incubated water bath at 35 degC for 22 hrs by HPLC analysis. The data set is classed as physicochemical.
A further data set relates to Rattus norvegicus. Put plainly: In vivo inhibition of NaPi2b in Sprague-Dawley rat assessed as reduction in phosphate absorption at 10 mg/kg, po after 5 mins followed by NaH2PO4 containing 32P-phosphate solution treatment and measured after 15 to 30 mins by liquid scintillation counting method. Format: functional, organism-based. The settings on record: dose […], time 35.0 min.

The nature of data set [5]: Solubility in FaSSIF at pH 6.6 incubated for 25 degC for 2 hrs further incubated water bath at 35 degC for 22 hrs by HPLC analysis. Format: physicochemical.
Data set [6] is described as follows: Oral bioavailability in Sprague-Dawley rat at 11.9 mg/kg measured for 24 hrs by liquid chromatography-tandem mass spectrometry. Particulars: in vivo. Format: ADME, organism-based.
The target of data set [7] is T2, Sodium-dependent phosphate transport protein 2B (Homo sapiens) (UniProt O95436).
T2 sequence (whole entry): T1 sequence (O95436 whole entry)
Kind of data set: Inhibition of human NaPi2b at 1 uM relative to control.

Data on six compounds can be found in ChEMBL document CHEMBL5143647, “Design, synthesis and biological evaluation of novel pyridine derivatives as gut-selective NaPi2b inhibitors” (Bioorg Med Chem Lett, 2022).

pIC50: −log10 of the molar value. ≈ marks a conversion by molar mass, not a printed value. Calls of active or inactive are those of the source. The rule behind the calls is not given here.

In the case of `CCC(CC)N(CCN(C)C(=O)CCC(=O)O)Cc1cccc(C(=O)Nc2ccc(N3CCCCC3)nc2C(=O)Nc2ccc(Oc3ccc(C(=O)O)cn3)cc2)c1`, the negative logarithm of the IC50 (pIC50) (usually the IC50 on a negative log10 scale, so that one unit is a factor of ten) in data set [1] is 6.15.
Take `CCN([C@H]1CC[C@H](C(=O)NCCOCCOCCOCCO)CC1)S(=O)(=O)c1cccc(C(=O)Nc2ccc(N3CCCCC3)nc2C(=O)Nc2ccc(CCc3ccc(C(=O)O)cc3)cc2)c1`: the dose excreted at 24 h in data set [2] worked out at 99.1%. Besides, the bioavailability (usually dose-corrected exposure relative to a reference, in per cent) in data set [3] stood at 2.7%. Also, the solubility (commonly how much of the substance goes into solution per volume) at 24 h in data set [4] was determined as 15.9 µg/mL (≈ 16.6 µM); in data set [5], 20.5 µg/mL (≈ 21.4 µM). The inhibition (usually the drop in the measured response relative to a control, in per cent) in the data set with Rattus norvegicus was “Active”.
`CCC(CC)N(CCN(C)C(=O)CCC(=O)O)Cc1cccc(C(=O)Nc2ccc(N3CCOCC3)nc2C(=O)Nc2ccc(CCc3ccc(C(=O)O)cc3)cc2)c1`: in data set [1], the negative-log IC50 (pIC50) was 6.69.
With `CCN([C@H]1CC[C@H](C(=O)O)CC1)S(=O)(=O)c1cccc(C(=O)Nc2ccc(N3CCCCC3)nc2C(=O)Nc2ccc(CCc3ccc(C(=O)NS(=O)(=O)NC)cc3)cc2)c1`, the bioavailability in data set [6] came to 10.4%.
For the compound `CCC(CC)N(CCN(C)C(=O)CCC(=O)O)Cc1cccc(C(=O)Nc2[nH]c3c(c2C(=O)Nc2ccc(CCc4ccc(C(=O)O)cc4)cc2)CCCC3)c1`, the inhibition in data set [7] stood at 87%.
For the compound `CCC(CC)N(CCN(C)C(=O)CCC(=O)O)Cc1cccc(C(=O)Nc2ccc(N3CCCCC3)nc2C(=O)Nc2ccc(Oc3ccc(C(=O)O)cc3)cc2)c1`, the negative-log IC50 (pIC50) in data set [1] was 6.79.
